This experiment addresses T1, human 11βHSD1 enzyme (Homo sapiens, UniProt P28845).
T1 construct: N terminal 6-His tagged full length human 11βHSD1 enzyme; 6-His (N); made in house
The experiment in a line: 11βHSD1 competitive HTRF assay (conversion of cortisone to cortisol). The class given is biochemical. The following applies: recombinant N terminal 6-His tagged full length human 11βHSD1; cortisone 160 nM; 25 minutes at 37° C.; pH 7.5. The method, then: The evaluation of compounds described herein was carried out using a baculovirus expressed N terminal 6-His tagged full length human 11βHSD1 enzyme (*1). The enzyme was purified from a detergent solublised cell lysate, using a copper chelate column. Inhibitors of 11βHSD1 reduce the conversion of cortisone to cortisol, which is identified by an increase in signal, in the above assay.
Compounds to be tested were dissolved in dimethyl sulphoxide (DMSO) to 10 mM and diluted further in assay buffer containing 1% DMSO to 10 fold the final assay concentration. Diluted compounds were then plated into black 384 well plates (Matrix, Hudson N.H., USA).
The assay plates were incubated for 25 minutes at 37° C. after which time the reaction was stopped by the addition of 10 μl of 0.5 mM glycerrhetinic acid plus conjugated cortisol (D2**). 10 μl of anti-cortisol Cryptate was then added and the plates sealed and incubated for 6 hours at room temperature. Fluorescence at 665 nm and 620 nm was measured and the 665 nm:620 nm ratio calculated using an Envision plate reader.
**D2 is a cortisol tracer which competes with native cortisol produced in the reaction for the monoclonal anti-cortisol antibody labelled with europium-cryptate. The antibody will fluoresce when it is bound to the cortisol tracer complex (D2 labelled with cortisol and glycyrrhetinic acid coupled together). Thus providing an accurate measure of 11beta-HSD1 activity.
T1 sequence (P28845 whole entry): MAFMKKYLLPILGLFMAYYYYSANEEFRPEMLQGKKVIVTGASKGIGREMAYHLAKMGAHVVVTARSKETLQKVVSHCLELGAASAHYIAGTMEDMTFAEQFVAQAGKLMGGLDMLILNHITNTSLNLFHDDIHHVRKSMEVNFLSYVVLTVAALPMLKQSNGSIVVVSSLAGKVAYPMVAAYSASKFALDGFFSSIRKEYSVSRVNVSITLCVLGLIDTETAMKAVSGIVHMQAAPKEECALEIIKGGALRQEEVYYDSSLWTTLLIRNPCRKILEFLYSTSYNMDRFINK
In general, IC50 refers to the concentration needed to halve the response being measured. Take `O=C(N[C@H]1C2CC3CC1C[C@@](O)(C3)C2)c1cnc(NC2CCS(=O)(=O)C2)nc1C1CCCC1` (stereo partly drawn) [Example 5, 4-cyclopentyl-2-[(1,1-dioxothiolan-3-yl)amino]-N-(5-hydroxy-2-adamantyl)pyrimidine-5-carboxamide]: the IC50 is 24 nM.

In the case of `CN1CC(Nc2ncc(C(=O)N[C@H]3C4CC5CC3C[C@@](O)(C5)C4)c(C3CCCC3)n2)CC1=O` (stereo partly drawn) [Example 16, 4-cyclopentyl-N-(5-hydroxy-2-adamantyl)-2-[(1-methyl-5-oxo-pyrrolidin-3-yl)amino]pyrimidine-5-carboxamide], the IC50 amounted to 20 nM.

For `CCN1CC(Nc2ncc(C(=O)N[C@H]3C4CC5CC3C[C@@](O)(C5)C4)c(C3CCCC3)n2)CC1=O` (stereo partly drawn) [Example 17, 4-cyclopentyl-2-[(1-ethyl-5-oxo-pyrrolidin-3-yl)amino]-N-(5-hydroxy-2-adamantyl)pyrimidine-5-carboxamide], the IC50 stood at 15 nM.

Turning to `CN1C(=O)CC[C@@H]1CNc1ncc(C(=O)N[C@H]2C3CC4CC2C[C@@](O)(C4)C3)c(C2CCCC2)n1` [Example 18, 4-cyclopentyl-N-(5-hydroxy-2-adamantyl)-2-[[(2R)-1-methyl-5-oxo-pyrrolidin-2-yl]methylamino]pyrimidine-5-carboxamide], the IC50 worked out at 23 nM.

For the compound `CC(C)c1nc(N[C@H]2CCOC2)ncc1C(=O)N[C@H]1C2CC3CC1C[C@@](O)(C3)C2` [Example 20, N-(5-hydroxy-2-adamantyl)-4-isopropyl-2-[[(3S)-tetrahydrofuran-3-yl]amino]pyrimidine-5-carboxamide], the IC50 stood at 46 nM.

Take `CC(C)c1nc(N[C@@H]2CCOC2)ncc1C(=O)N[C@H]1C2CC3CC1C[C@@](O)(C3)C2` [Example 21, N-(5-hydroxy-2-adamantyl)-4-isopropyl-2-[[(3R)-tetrahydrofuran-3-yl]amino]pyrimidine-5-carboxamide]: the IC50 worked out at 42 nM.

Consider `O=C(N[C@H]1C2CC3CC1C[C@@](O)(C3)C2)c1cnc(N[C@@H]2CCOC2)nc1C(F)(F)F` [Example 22, N-(5-hydroxy-2-adamantyl)-2-[[(3R)-oxolan-3-yl]amino]-4-(trifluoromethyl)pyrimidine-5-carboxamide], for which the IC50 was found to be 25 nM.

In the case of `O=C(N[C@H]1C2CC3CC1C[C@@](O)(C3)C2)c1cnc(N[C@H]2CCOC2)nc1C(F)(F)F` [Example 23, N-(5-hydroxy-2-adamantyl)-2-[[(3S)-oxolan-3-yl]amino]-4-(trifluoromethyl)pyrimidine-5-carboxamide], the IC50 came to 95 nM.

Consider `CCOc1nc(N[C@@H]2CCOC2)ncc1C(=O)N[C@H]1C2CC3CC1C[C@@](O)(C3)C2` [Example 24, 4-Ethoxy-N-(5-hydroxy-2-adamantyl)-2-[[(3R)-tetrahydrofuran-3-yl]amino]pyrimidine-5-carboxamide], for which the IC50 was 45 nM.

As to `CCOc1nc(N[C@H]2CCOC2)ncc1C(=O)N[C@H]1C2CC3CC1C[C@@](O)(C3)C2` [Example 25, 4-Ethoxy-N-(5-hydroxy-2-adamantyl)-2-[[(3S)-tetrahydrofuran-3-yl]amino]pyrimidine-5-carboxamide], the IC50 is 37 nM.

In the case of `CCCOc1nc(N[C@@H]2CCOC2)ncc1C(=O)NC1C2CC3CC1CC(O)(C3)C2` (stereo partly drawn) [Example 33, N-(5-hydroxy-2-adamantyl)-4-propoxy-2-[[(3R)-tetrahydrofuran-3-yl]amino]pyrimidine-5-carboxamide], the IC50 was found to be 19 nM.

With `CCCOc1nc(N[C@H]2CCOC2)ncc1C(=O)N[C@H]1C2CC3CC1C[C@@](O)(C3)C2` [Example 34, N-(5-hydroxy-2-adamantyl)-4-propoxy-2-[[(3S)-tetrahydrofuran-3-yl]amino]pyrimidine-5-carboxamide], the IC50 was determined as 21 nM.

Regarding `O=C(N[C@H]1C2CC3CC1C[C@@](O)(C3)C2)c1cnc(N[C@@H]2CCOC2)nc1N1CCCC1` [Example 37, N-(5-hydroxy-2-adamantyl)-4-pyrrolidin-1-yl-2-[[(3R)-tetrahydrofuran-3-yl]amino]pyrimidine-5-carboxamide], the IC50 was 777 nM.

Turning to `O=C(N[C@H]1C2CC3CC1C[C@@](O)(C3)C2)c1cnc(N[C@H]2CCOC2)nc1N1CCCC1` [Example 38, N-(5-hydroxy-2-adamantyl)-4-pyrrolidin-1-yl-2-[[(3S)-tetrahydrofuran-3-yl]amino]pyrimidine-5-carboxamide], the IC50 was 1600 nM.

For the compound `O=C(N[C@H]1C2CC3CC1C[C@@](O)(C3)C2)c1cnc(N[C@@H]2CCOC2)nc1-n1cccn1` [Example 39, N-(5-hydroxy-2-adamantyl)-4-pyrazol-1-yl-2-[[(3R)-tetrahydrofuran-3-yl]amino]pyrimidine-5-carboxamide], the IC50 was found to be 708 nM.

As to `O=C(N[C@H]1C2CC3CC1C[C@@](O)(C3)C2)c1cnc(N[C@H]2CCOC2)nc1-n1cccn1` [Example 40, N-(5-hydroxy-2-adamantyl)-4-pyrazol-1-yl-2-[[(3S)-tetrahydrofuran-3-yl]amino]pyrimidine-5-carboxamide], the IC50 came out at 2270 nM.

With `CN(C(=O)c1cnc(N[C@@H]2CCOC2)nc1C1CCCC1)[C@H]1C2CC3CC1C[C@@](O)(C3)C2` [Example 41, 4-Cyclopentyl-N-(5-hydroxy-2-adamantyl)-N-methyl-2-[[(3R)-oxolan-3-yl]amino]pyrimidine-5-carboxamide], the IC50 was found to be 46 nM.

In the case of `CN(C(=O)c1cnc(N[C@H]2CCOC2)nc1C1CCCC1)[C@H]1C2CC3CC1C[C@@](O)(C3)C2` [Example 42, 4-cyclopentyl-N-(5-hydroxy-2-adamantyl)-N-methyl-2-[[(3S)-oxolan-3-yl]amino]pyrimidine-5-carboxamide], the IC50 came out at 32 nM.

On to `NC(=O)[C@]12CC3CC(C1)[C@H](NC(=O)c1cnc(N[C@H]4CCOC4)nc1C1CCCC1)C(C3)C2` [Example 43, N-(5-carbamoyl-2-adamantyl)-4-cyclopentyl-2-[[(3S)-tetrahydrofuran-3-yl]amino]pyrimidine-5-carboxamide], for which the IC50 was 17 nM.

With `O=C(N[C@H]1C2CC3CC1C[C@@](C(=O)O)(C3)C2)c1cnc(N[C@H]2CCOC2)nc1C1CCCC1` [Example 44, 4-[[4-cyclopentyl-2-[[(3S)-tetrahydrofuran-3-yl]amino]pyrimidine-5-carbonyl]amino]adamantane-1-carboxylic acid], the IC50 is 424 nM.

Regarding `CS(=O)(=O)[C@]12CC3CC(C1)[C@H](NC(=O)c1cnc(N[C@H]4CCOC4)nc1C1CCCC1)C(C3)C2` [Example 45, 4-cyclopentyl-N-(5-methylsulfonyl-2-adamantyl)-2-[[(3S)-tetrahydrofuran-3-yl]amino]pyrimidine-5-carboxamide], the IC50 came out at 273 nM.
